Data published in article PMC8840040, “Pharmacokinetic Characterization of the DDAH1 Inhibitors ZST316 and ZST152 in Mice Using a HPLC-MS/MS Method” (Molecules, 2022).
Read-outs that look alike come from different tables or passages of the source.

Test: Plasma pharmacokinetics and urinary elimination after acute and chronic intraperitoneal administration
Type: in vivo, FVB mice
Method: In this study, 18 mice received a single dose and were sampled within 24 h, and the other 18 were treated every day for three weeks (qdx21) and sampled on day 21. Mice were monitored daily for clinical signs of toxicity and distress, and body weight was measured at least twice a week. Blood samples were collected after both treatment regimens at 15 and 30 min, and 1, 3, 8, and 24 h post dose. Three mice were analyzed for each time point. After the animals were anesthetized with isoflurane, the blood was drained from the retro-orbital plexus into heparinized tubes, and then centrifuged for 10 min at 4000 g at 4 °C to separate plasma. A 24-h urine fraction was collected in three mice for each drug and route of administration. Plasma and urine samples were stored at −20 °C until analysis by HPLC-MS/MS.
[…] chromatography was performed using a series 200 HPLC system (Perkin Elmer, Waltham, MA, USA) under gradient conditions with separation on a HILIC column, 3 µm, 100 A, 2.1 × 150 mm (Waters, Milford, MA, USA), coupled with a 3 µm, 3.9 × 5.0 mm guard column of the same material at the flow rate of 0.2 mL/min. Gradient features: 10% mobile phase (MP) A (NH4HCO2 10 mM, 10% CH3CN, 0.1% HCOOH) and 90% MP B (CH3CN, 0.1% HCOOH) as the initial constant condition; then to 90% MP A in 6 min and the constant condition for 1.5 min. Return to the start condition in 0.5 min and conditioning for 5.5 min. Total run time: 13.5 min. Mass spectrometric detection was performed using an API 4000 triple quadrupole mass spectrometer (SCIEX, Framingham, MA, USA) supplied with a Turbo Ion Spray source set at 350 °C and −4200 V, analyzing biological samples with electrospray ionization (ESI) operating in negative ion mode. Purified air was used as nebulizer gas (Gas 1) and heater gas (Gas 2) and N2 was used as curtain gas and collision activated dissociation gas. They were set to 40, 50, 20, and 4 instrument units (psi), respectively. The declustering potential (DP) was set at −119 V and the collision exit potential (CXP) at –10 V. All parameters of the source were defined by direct infusion of ZST316 and ZST152 1 µg/mL in mobile phase B. The final quantification was carried out in Selected Reaction Monitoring (SRM) with the following transitions: m/z 307.9 → 208.0 (collision energy of −29.5 eV) for ZST316 and m/z 271.9 → 170.9 (collision energy −24.7 eV) for ZST152 (Figure 2 and Figure 3). Data were processed with the software package Analyst 1.6.2 (AB SCIEX).
Pharmacokinetic parameters and descriptive statistics (means, standard deviations, percentages) were calculated using Phoenix WinNonlin V 8.3 (Certara Inc., Princeton, NJ, USA).

[1] = FVB, mouse, plasma, ip, i.p. 30 mg/Kg, acute
[2] = FVB, mouse, plasma, ip, i.p. 30 mg/Kg/day, chronic

SMILES: COCCNC(=N)NCCC[C@H](N)C(=O)NS(C)(=O)=O [ZST316]
- AUC(0-t) (FVB, mouse, plasma, ip, 30 mg/kg, i.p. 30 mg/Kg, acute, read-out: AUC 0-8h): 14300 ng·h/mL
- AUC(0-t) (FVB, mouse, plasma, ip, 30 mg/kg, i.p. 30 mg/Kg, acute, read-out: AUC 0-last): 14400 ng·h/mL
- AUC(0-t) (FVB, mouse, plasma, ip, 30 mg/kg/day, i.p. 30 mg/Kg/day, chronic, read-out: AUC 0-8h): 12300 ng·h/mL
- AUC(0-t) (FVB, mouse, plasma, ip, 30 mg/kg/day, i.p. 30 mg/Kg/day, chronic, read-out: AUC 0-last): 12600 ng·h/mL
- AUC(0-inf) [1]: 14500 ng·h/mL
- Tmax [1]: 0.25 h
- half-life [1]: 5.7 h
- Cmax (FVB, mouse, plasma, ip, i.p. 30 mg/Kg, acute (single dose)): 40200 ng/mL
- bioavailability (FVB, mouse, plasma, ip, i.p. 30 mg/Kg, acute, read-out: F % (bioavailability)): 67%
- Cmax at 21 days (FVB, mouse, plasma, ip, i.p. 30 mg/Kg/day for three weeks, chronic (day 21)): 33600 ng/mL
- AUC(0-inf) [2]: 12700 ng·h/mL
- Tmax [2]: 0.25 h
- half-life [2]: 8.4 h
- bioavailability at 21 days (FVB, mouse, plasma, ip, i.p. 30 mg/Kg/day, chronic, read-out: F % (bioavailability)): 59%
- 24-h urinary excretion (% of dose) (i.p. 30 mg/Kg, acute): 56.1 % of dose
- urinary excretion, % of the administered dose (i.p. 30 mg/Kg, acute/chronic not distinguished): 55%
- accumulation after chronic treatment (i.p. 30 mg/Kg/day for three weeks, 30 mg/kg/day): no accumulation was observed
- 24-h urinary excretion (% of dose) (i.p. 30 mg/Kg/day, chronic): 54.1 % of dose
